Data published in US12098179B2, “Antigenic peptides deriving from urocortin 3 and uses thereof for the diagnosis and treatment of type 1 diabetes” (INSERM (INSTITUT NATIONAL DE LA SANTÉ ET DE LA RECHERCHE …, priority 2018, dated 2024).
Ends that are not written are not given here.

Legend:
[1] = tested on: circulating CD8^+ T cells; experiment: ex vivo combinatorial HLA-A2 MMr assay on PBMCs; assay type: cell-based, human
Procedure: All peptides were synthesized at >90% purity (Synpeptides). HLA-A2 MMrs were produced as described (Leisner et al., 2008) and staining performed in the presence of 50 nM dasatinib (Lissina et al., 2009), as described (Culina et al., 2018). Briefly, cryopreserved PBMCs were magnetically depleted of CD8^− cells (StemCell Technologies), stained with the combinatorial MMr panels (Hadrup et al., 2009) and acquired using a FACSAria III cytometer.

[2] = tested on: circulating CD8^+ T cells; experiment: ex vivo HLA-A3 multimer (MMr) staining of PBMCs; assay type: cell-based, human; conditions: HLA-A3^+ T1D and healthy donors
Procedure: HLA-A3 MMrs were produced and used as described (Gonzalez-Duque, Cell Metab 2018). Each peptide-HLA-A3 complex was used at a final concentration of 8-27 nM and conjugated with fluorochrome-labeled streptavidin at a 1:4 ratio. The concentration of each fluorescent MMr was corrected for the variable staining index of each streptavidin, in order to obtain a distinct double-MMr^+ population for each fluorochrome pair. Compensations were set using fluorescence-minus-one samples (i.e. omitting one streptavidin at a time). The combinatorial MMr panel was first set up by staining HLA-A3^+ PBMCs with the same set of fluorescent streptavidin-labeled MMrs, all loaded with the Flu NP265-273 epitope, which yielded a similar MMr^+CD8^+ T-cell frequency for all the 15 MMr combination pairs.
PBMCs were thawed at 37° C. and immediately diluted in pre-warmed AIM-V medium. Following centrifugation and one additional wash in AIM-V, PBMCs were counted and rested in the presence of 50 nM dasatinib for 30 min at 37° C. to prevent internalization of T-cell receptors before magnetic depletion of CD8^− cells (StemCell Technologies). Staining was performed for 20 min at 20° C. in […] PBS-dasatinib for 10^7 cells with combinatorial double-coded MMr panels, followed, without washing, by CD3-APC-H7 (RRID AB_1645475), CD8-PE-Cy7 (AB_396852), CD45RA-FITC (AB_395879), CCR7-BV421 (AB_2728119) monoclonal antibodies and Live/Dead Aqua (ThermoFisher) staining at 4° C. for 20 min. After one wash, cells were acquired using a FACSAria III cytometer. […] Flow cytometry data were analyzed with FlowJo v10 and Graphpad Prism 7.0 software. Cells were sequentially gated on small lymphocytes, singlets, live cells (Live/Dead Aqua l, CD3^+CD8^+ T cells and total PE^+, PE-CF594^+, APC^+, BV650^+, BV711^+ and BV786^+ MMr^+ T cells. Using Boolean operators, these latter gates allowed to selectively visualize each double-MMr^+ population by including only those events positive for the corresponding fluorochrome pair. For example, SCG3166-174 MMr^+ cells (PE^+PE-CF594^+) were visualized by gating on events that were PE^+PE-CF594^+APC^−BV650^−BV711^−BV786^−. Events negative for all MMr fluorochromes (PE^−PE-CF594^−APC^−BV650^−BV711^−BV786^−) were represented in the same PE/PE-CF-594 dot plot to set the double-MMr^+ gate. CD45RA and CCR7 staining was subsequently visualized by gating on these MMr^+ cells.

[3] = tested on: islet-infiltrating CD8^+ T cells of NOD mice; experiment: IFN-γ recall assay of islet-infiltrating cells against peptide-pulsed K^d+ L cells; assay type: cell-based, mouse; conditions: 12-16-week-old NOD females; for percentage of IFN-γ^+CD8^+ cells, median / percentage of IFN-γ^+CD8^+ cells, positive range: 6 h recall; for positive mice (IFN-γ^+CD8^+ cells >1.8%): positive / tested
Text: Peptides predicted to be restricted by the murine MHC Class I K^d molecule were identified using prediction algorithms and scanning of the whole murine protein sequence. Peptides were first tested in pools, and positive pools subsequently deconvoluted for reactivity against individual peptides. To this end, islets were isolated from 12-16-week-old NOD mice by collagenase digestion and put in culture with recombinant human IL-2 (Proleukin, Novartis) for 5 days as described (Brezar et al, Eur J Immunol 2012). Cells exiting the islets were subsequently collected and subjected to recall assays against K^d+ L antigen-presenting cells pulsed with the indicated peptides for 6 h in the presence of brefeldin-A, followed by intracellular staining for IFN-γ. The TUM, Ins B15-23 and IGRP 206-214 peptides were included as negative control and positive controls, respectively.

[4] = tested on: pancreas-infiltrating cells of HLA-A2^+ T1D patients; experiment: in-situ HLA-A2 MMr staining on pancreas sections; assay type: cell-based, human; conditions: 2 HLA-A2^+ T1D cases (nPOD)
Procedure: In-situ staining was performed as described (Culina et al., 2018). Unfixed, frozen sections were dried for 2 h, loaded with 1 μg of MMrs overnight at 4° C., washed gently with phosphate-buffered saline and fixed in 2% paraformaldehyde for 10 min. After a further wash, endogenous peroxidase activity was blocked with 0.3% H2O2. Sections were then incubated serially with rabbit anti-phycoerythrin, horseradish peroxidase-conjugated swine anti-rabbit and 3,3′-diaminobenzidine tetrahydrochloride substrate (ThermoFisher). After a final wash, sections were counterstained with hematoxylin, dehydrated via sequential passages in 95-100% ethanol and xylene, mounted and analyzed using a Nikon Eclipse Ni microscope with NIS-Elements Analysis D software v4.40.

[5] = HLA-A2^+ healthy donors, screening
[6] = HLA-A2^+ recent-onset T1D and healthy subjects (n=10/each)

Substance: CHGA344-352: HLA-A2-restricted HLA-eluted β-cell peptide from chromogranin A (KMDQLAKEL)
- cognate naïve CD8^+ T-cell repertoire (frequency 1-50/10^6, clustered MMr staining) validated [1, 5]: validated

Substance: FLSGAVNRL [SCG5-009186-194]
- cognate naïve CD8^+ T-cell repertoire (frequency 1-50/10^6, clustered MMr staining) validated [1, 5]: validated
- frequency of MMr^+ cells (in words) [1, 6]: particularly high and clustered

Substance: GQWEDASLLSK
- validation as HLA-A3-restricted CD8^+ T-cell epitope [2]: positive hits

Substance: GYRDINEIDI [Pcsk2 109-118, murine Pcsk2 peptide predicted to be restricted by K^d]
- percentage of positive mice [3]: 50%
- percentage of IFN-γ^+CD8^+ cells, median [3]: 1.8%
- percentage of IFN-γ^+CD8^+ cells, positive range [3]: 1.9-4.3%

Substance: IGRP 206-214: positive control peptide in NOD recall assay (VYLKTNVFL; UniProt Q9Z186 206-214, looked up, fragment) [reference compound]
- percentage of positive mice [3]: 100%
- percentage of IFN-γ^+CD8^+ cells, median [3]: 12.5%
- percentage of IFN-γ^+CD8^+ cells, positive range [3]: 4.5-25.3%
- positive mice (IFN-γ^+CD8^+ cells >1.8%) [3]: 13/13

Substance: ISL1276-284: HLA-A2-restricted HLA-eluted peptide from insulin gene enhancer protein ISL1 (GLQANPVEV)
- in-situ MMr staining of pancreas sections [4]: MMr^+ cells could be detected
- cognate naïve CD8^+ T-cell repertoire (frequency 1-50/10^6, clustered MMr staining) validated [1, 5]: validated
- median frequency detected in peripheral blood ([1]; T1D patients): 7.2×10^−6

Substance: KCNK16129-137: HLA-A2-restricted HLA-eluted β-cell peptide from KCNK16 (ALLGIPLNV)
- cognate naïve CD8^+ T-cell repertoire (frequency 1-50/10^6, clustered MMr staining) validated [1, 5]: validated

Substance: KIF1A860-868: HLA-A3-restricted islet peptide from KIF1A (LLYPVPLVH)
- validation as HLA-A3-restricted CD8^+ T-cell epitope [2]: positive hits

Substance: KIF1A1347-1355: HLA-A2-restricted HLA-eluted β-cell peptide from Kinesin Family Member 1A (VLDTSVAYV)
- cognate naïve CD8^+ T-cell repertoire (frequency 1-50/10^6, clustered MMr staining) validated [1, 5]: validated

Substance: LYDESCSSTL [Pcsk2 341-350, murine Pcsk2 peptide predicted to be restricted by K^d]
- percentage of positive mice [3]: 75%
- percentage of IFN-γ^+CD8^+ cells, median [3]: 3.3%
- percentage of IFN-γ^+CD8^+ cells, positive range [3]: 1.9-5.2%
- positive mice (IFN-γ^+CD8^+ cells >1.8%) [3]: 6/8

Substance: MLMPVHFLL
- cognate naïve CD8^+ T-cell repertoire (frequency 1-50/10^6, clustered MMr staining) validated [1, 5]: validated
- frequency of MMr^+ cells (in words) [1, 6]: particularly high and clustered

Substance: PCSK230-38: HLA-A2-restricted HLA-eluted β-cell peptide from proprotein convertase 2 (FTNHFLVEL)
- cognate naïve CD8^+ T-cell repertoire (frequency 1-50/10^6, clustered MMr staining) validated [1, 5]: validated

Substance: PNMA250-58: HLA-A3-binding islet peptide not validated as CD8+ T-cell epitope (RLLGKIFRK)
- validation as HLA-A3-restricted CD8^+ T-cell epitope [2]: single exception

Substance: PPI6-14: known preproinsulin β-cell epitope used as β-cell positive control (RLLPLLALL; UniProt P01308 6-14, looked up, fragment) [reference compound]
- frequency of CD8^+ T cells recognizing the peptide [1, 5]: 1-50 /10^6 CD8^+ T cells
- frequency of circulating CD8^+ T cells recognizing the peptide ([1]; HLA-A2^+ recent-onset T1D and healthy subjects (n=10/each), similar in both): 1-50 /10^6 CD8^+ T cells

Substance: RLKPSLVGK [SCG5-009193-201, HLA-A3 restricted peptide from mRNA splice variant SCG5-009]
- validation as HLA-A3-restricted CD8^+ T-cell epitope [2]: positive hits

Substance: RYLEHVQAVI [Pcsk2 501-510, murine Pcsk2 peptide predicted to be restricted by K^d]
- percentage of positive mice [3]: 63%
- percentage of IFN-γ^+CD8^+ cells, median [3]: 2.7%
- percentage of IFN-γ^+CD8^+ cells, positive range [3]: 2.1-8.0%
- positive mice (IFN-γ^+CD8^+ cells >1.8%) [3]: 5/8

Substance: SCG3166-174: HLA-A3-restricted islet peptide from secretogranin III (AVFDKIVSK)
- validation as HLA-A3-restricted CD8^+ T-cell epitope [2]: positive hits

Substance: SCG5186-195: HLA-A2-restricted HLA-eluted β-cell peptide from SCG5 (7B2) (YLQGQRLDNV)
- cognate naïve CD8^+ T-cell repertoire (frequency 1-50/10^6, clustered MMr staining) validated [1, 5]: validated

Substance: TYFLLPLLL [Ucn3 5-13, murine Ucn3 peptide predicted to be restricted by K^d]
- percentage of positive mice [3]: 67%
- percentage of IFN-γ^+CD8^+ cells, median [3]: 2.3%
- percentage of IFN-γ^+CD8^+ cells, positive range [3]: 2.1-8.6%
- positive mice (IFN-γ^+CD8^+ cells >1.8%) [3]: 8/12

Substance: VFSCLNTAL [Ucn3 32-40, murine Ucn3 peptide predicted to be restricted by K^d]
- percentage of positive mice [3]: 67%
- percentage of IFN-γ^+CD8^+ cells, median [3]: 1.9%
- percentage of IFN-γ^+CD8^+ cells, positive range [3]: 1.9-3.3%
- positive mice (IFN-γ^+CD8^+ cells >1.8%) [3]: 8/12

Substance: ZnT8186-184: positive control islet peptide (VAANIVLTV; UniProt Q8IWU4 186-194, looked up, fragment) [reference compound]
- in-situ MMr staining of pancreas sections [4]: MMr^+ cells could be detected
